“And” between values parts separate entries of the source, which are not always exact repeats. Identical values can stand only once.
How the values were obtained:
[1] = Archaeosome formation by hydration of dried lipid; format: physicochemical; details: lipid hydrated in PBS with antigen
Method: (§1) In one method, archaeosomes were formed by hydrating 20-30 mg dried lipid at 40° C. in 2 ml PBS buffer (10 mM sodium phosphate, 160 mM NaCl, pH 7.1) with the protein antigen OVA dissolved at 10 mg/ml. Vesicle size was reduced to about 100-150 nm diameter by brief sonication in a sonic bath (Fisher Scientific), and the portion of OVA antigen not entrapped was removed by centrifugation from 7 ml PBS followed by 2 washes (200,000×g max for 30 min). Vesicle pellets were resuspended in 2-2.5 ml PBS and filter sterilized through 0.45 μm Millipore filters. Sterile conditions and pyrogen-free water was used throughout.
In another method, lipids dissolved in t-butanol/water received antigen dissolved in an equal volume of water. The sample was then lyophilized to a powder and rehydrated in PBS buffer. Size was reduced, antigen not entrapped was removed, and filtration conducted as above.

[2] = Antigen loading of archaeosomes (SDS PAGE / SDS Lowry); format: physicochemical; details: OVA antigen entrapped in archaeosomes
Method: as §1
In another method, lipids dissolved in t-butanol/water received antigen dissolved in an equal volume of water. The sample was then lyophilized to a powder and rehydrated in PBS buffer. […]
Quantification of antigen loading was conducted by separating protein(s) from lipids using SDS polyacrylamide gel electrophoresis as described (Sprott, G. D., Patel, G. B., and Krishnan, L. 2003. Methods Enzymol, 373:155-172). Loading of synthetic archaeosomes with antigens was also determined using SDS Lowry with standard curves prepared for the respective antigen. […] Average diameters based on Intensity and Zeta potentials were measured using a Malvern Nano Zetasizer with a He/Ne laser (Spectra Research Corp., Ontario, Canada).

[3] = Average diameter of archaeosomes (Malvern Nano Zetasizer); format: physicochemical
Method: as §1
Quantification of antigen loading was conducted by separating protein(s) from lipids using SDS polyacrylamide gel electrophoresis as described (Sprott, G. D., Patel, G. B., and Krishnan, L. 2003. Methods Enzymol, 373:155-172). Loading of synthetic archaeosomes with antigens was also determined using SDS Lowry with standard curves prepared for the respective antigen. Loading was based on μg protein/mg salt corrected dry weight of lipid. Average diameters based on Intensity and Zeta potentials were measured using a Malvern Nano Zetasizer with a He/Ne laser (Spectra Research Corp., Ontario, Canada).

anti OVA antibody (IgG) = assay: Anti-OVA antibody titre in sera of immunized mice (Elisa); format: in vivo; details: OVA-archaeosomes, immunized day 0 and 21; FIG. 13
Method: (§2) C57BL6 female mice ([…]) were immunized subcutaneously with 0.1 ml vaccines containing the equivalent of 20 μg OVA, often entrapped in archaeosomes of various compositions, A booster consisting of the same vaccine and route was given most often on week 3. In experiments addressing ability of archaeosomes to evoke immune response to a cancer self-antigen, TRP or Gp100 antigen in archaeosomes was administered at a dose of 15 μg antigen per injection and booster given on week 3.5 and week 8.5. In some experiments an additional third injection was given (˜95 days after first dose). All protocols and SOPs were approved by the NRC Animal Care Committee and conducted within the guidelines of the Canadian Council on Animal Care.
(§3) As a measure of CD4^+ T cell response, antibody raised to the antigen in the vaccine and present in the sera of mice (5-6 mice/group), was quantified by Elisa according to a previous description (Krishnan, L., Dicaire, C. J., Patel, G. B., and Sprott, G. D. 2000. Infect, Immun. 68:54-63). The CD8^+ T cell response was quantified by sacrificing 2 mice/group and pooling their splenic cells. These were assayed in triplicate for antigen-specific responses by Elispot and CTL methods (Krishnan, L., Sad, S., Patel, G. B., and Sprott, G. D. 2003. Cancer Res. 63:2526-2534).

CD8^+ T cell response = assay: Elispot of IFN-γ-secreting splenic cells of mice immunized with OVA-archaeosomes; format: in vivo; details: OVA-loaded archaeosomes s.c. at 0 and 3 weeks; 6 weeks post first injection; FIG. 2
Method: as §2, with “All protocols and SOPs were approved by the NRC Animal Care Committee and conducted within the guidelines of the Canadian Council on Animal Care.” left out
as §3, with “These were assayed in triplicate for antigen-specific responses by Elispot and CTL methods (Krishnan, L., Sad, S., Patel, G. B., and Sprott, G. D. 2003. Cancer Res. 63:2526-2534).” left out
In a first example, adjuvant activity of the natural sulfated glycolipid purified from Haloferax volcanii (6′-HSO3-D-Manp-α-1,2-D-Glcp-α-1,1-archaeol) was compared to a synthetic 6′-S-lactosylarchaeol, not found in nature. […] CD8^+ T cell responses measured by Elispot splenic cell assays. […]

EL-4+TRP target cells = assay: CD8+ T cell response (ELISPOT, CTL) to cancer self-antigen TRP / Gp100 delivered in archaeosomes; format: in vivo, mice; details: TRP-liposomes; 15.5 weeks; FIG. 12
Method: as §2, with “All protocols and SOPs were approved by the NRC Animal Care Committee and conducted within the guidelines of the Canadian Council on Animal Care.” left out
as §3, with “These were assayed in triplicate for antigen-specific responses by Elispot and CTL methods (Krishnan, L., Sad, S., Patel, G. B., and Sprott, G. D. 2003. Cancer Res. 63:2526-2534).” left out
Peptides HLA.A2/H-2K^b TRP-2180-188 (SVYDFFVWL), CTL epitope from tyrosinase related protein-2 and Gp10025-35 (KVPRNQDWL) from human melanoma antigen Gp100 were synthesized. […] Quantification was done using a calibration curve based on known amounts of each of the respective peptides. […]

## CC(C)CCCC(C)CCCC(C)CCCC(C)CCOCC(CO[C@@H]1O[C@H](CO[C@@H]2O[C@H](CO[C@@H]3O[C@H](CO)[C@@H](O)[C@H](O)[C@H]3O)[C@@H](O)[C@H](O)[C@H]2O)[C@@H](O)[C@H](O)[C@H]1O)OCCC(C)CCCC(C)CCCC(C)CCCC(C)C (stereo partly drawn) [Glc3A, β-Glcp-(1,6)-β-Glcp-(1,6)-β-D-Glcp-(1,1)-archaeol]
[1]
  archaeosome vesicle formation / hydrating ability: did not form

## CC(C)CCC[C@@H](C)CCC[C@@H](C)CCC[C@@H](C)CCOC[C@@H](CO[C@@H]1O[C@H](CO)[C@@H](O[C@@H]2O[C@H](CO)[C@H](O)[C@H](O)[C@H]2O)[C@H](O)[C@H]1O)OCC[C@H](C)CCC[C@H](C)CCC[C@H](C)CCCC(C)C [LA, lactosylarchaeol]
[1]
  archaeosome vesicle formation / hydrating ability: did not hydrate well
[1]; listed as lactosylarchaeol
  archaeosome vesicle formation / hydrating ability: did not form

## CC(C)CCCC(C)CCCC(C)CCCC(C)CCOCC(CO[C@@H]1OC(CO)[C@@H](O[C@@H]2OC(COS(=O)(=O)[O+]=[Na])[C@H](O)[C@H](O)C2O)[C@H](O)C1O)OCCC(C)CCCC(C)CCCC(C)CCCC(C)C (stereo partly drawn) [SLA, (2R)-2,3-Bis[(3R,7R,11R)-3,7,11,15-tetramethylhexadecyloxy]propan-1-yl 4-O-(6-O-sulfo-β-D-galactopyranosyl)-β-D-glucopyranoside]
[2]
  Loading (μg antigen/mg archaeosome): 35.0 μg antigen/mg archaeosome and 22.0 μg antigen/mg archaeosome
[3]; 12 weeks storage
  Average Diameter (nm) 12 weeks: 176 nm
[3]; 20 weeks storage
  Average Diameter (nm) 20 weeks: 168 nm
[3]; at first injection
  Average Diameter (nm) At first injection: 172 nm and 168 nm
Anti OVA antibody (IgG)
  antibody response to OVA in serum: strong antibody response
[1]
  archaeosome vesicle formation / hydrating ability: excellent hydrating ability
CD8^+ T cell response
  CD8+ T cell response, frequency of IFN-γ-secreting splenic cells (Elispot): highest response
EL-4+TRP target cells
  adjuvant activity and CD8+ T cell response, archaeol from H. salinarum versus H. volcanii: equally effective

## CC(C)CCCC(C)CCCC(C)CCCC(C)CCOCC(CO[C@@H]1O[C@H](CO)[C@@H](O[C@@H]2O[C@H](COS(=O)(=O)O)[C@H](OS(=O)(=O)O)[C@H](O)[C@H]2O)[C@H](O)[C@H]1O)OCCC(C)CCCC(C)CCCC(C)CCCC(C)C (stereo partly drawn) [di-sulfated LA, 4′-6′-disulfate-β-D-Galp-(1,4)-β-D-Glcp-(1,1)-archaeol]
Anti OVA antibody (IgG)
  antibody response to OVA in serum: strong antibody response

## CC(C)CCCC(C)CCCC(C)CCCC(C)CCOCC(CO[C@@H]1O[C@H](CO)[C@@H](O[C@@H]2O[C@H](CO[C@@H]3O[C@H](COS(=O)(=O)O)[C@@H](O)[C@H](O)[C@H]3O)[C@H](O)[C@H](O)[C@H]2O)[C@H](O)[C@H]1O)OCCC(C)CCCC(C)CCCC(C)CCCC(C)C (stereo partly drawn) [sulfated-trisaccharide archaeol, 6′-sulfated β-D-Glcp-(1,6)-β-D-Galp-(1,4)-β-D-Glcp-(1,1)-archaeol]
Anti OVA antibody (IgG)
  antibody response to OVA in serum: strong antibody response

Reference: US10647737B2, “Sulfated-glycolipids as adjuvants for vaccines” (National Research Council of Canada, priority 2014, dated 2020)
